This note sets out measurements from PubChem BioAssay (NCI).

Some test systems named below: OVCAR-8 ovarian; DU-145 prostate; U251 CNS; IGROV1 ovarian; SF-295 CNS; OVCAR-5 ovarian; COLO 205 colon; NCI-H522 lung; A549 NSCLC; 786-0 renal; MDA-N; RXF 393 renal; SN12C renal; HCT-116 colon; UACC-257 melanoma; LOX IMVI melanoma; PC-3 prostate; SK-MEL-2 melanoma; MDA-MB-231 breast.
Holding throughout (assay): NCI-60 cell line screen, 48 h

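Dose response: 5 concentrations. Exposure: 48 h. Format: 96-well plates. Endpoint: linear interpolation; highest concentration if not reached. TGI marks complete inhibition of growth.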

In the case of `N=C1/C(=C/c2ccco2)C(=O)N=C2SC=NN12`, the TGI in the test with OVCAR-8 ovarian, in the test on DU-145 prostate, in the test with U251 CNS, with IGROV1 ovarian, in the test on SF-295 CNS and in the test on OVCAR-5 ovarian was greater than 100 µM in each case. Further, the TGI in the test with COLO 205 colon, in the test with NCI-H522 lung, with A549 NSCLC, in the test with 786-0 renal, with MDA-N and with RXF 393 renal was greater than 100 µM throughout. The TGI in the test with SN12C renal, in the test with HCT-116 colon, in the test on UACC-257 melanoma, in the test on LOX IMVI melanoma, in the test with PC-3 prostate and in the test with SK-MEL-2 melanoma was greater than 100 µM each time. Besides, the TGI with MDA-MB-231 breast is greater than 100 µM.

With `CCOC(=O)C1C(c2ccco2)C2(C#N)C(=N)OC1(C)C2(C#N)C#N` (configuration not stated), the TGI in the test with OVCAR-8 ovarian, in the test with DU-145 prostate, in the test on U251 CNS, in the test on IGROV1 ovarian, with SF-295 CNS and in the test with OVCAR-5 ovarian was greater than 100 µM throughout. Besides, the TGI with COLO 205 colon, in the test with NCI-H522 lung, with A549 NSCLC, in the test with 786-0 renal, in the test on MDA-N and in the test on RXF 393 renal was greater than 100 µM each time. The TGI in the test on SN12C renal, in the test with HCT-116 colon, with UACC-257 melanoma, with LOX IMVI melanoma, in the test with PC-3 prostate and in the test with SK-MEL-2 melanoma was greater than 100 µM throughout. Further, the TGI in the test with MDA-MB-231 breast was greater than 100 µM.

For `CCC(C#N)NCc1ccc(CNC(C#N)CC)cc1` (configuration not stated), the TGI in the test on OVCAR-8 ovarian, with DU-145 prostate, in the test on U251 CNS, in the test on IGROV1 ovarian, with SF-295 CNS and in the test with OVCAR-5 ovarian was greater than 100 µM each time. Moreover, the TGI in the test with COLO 205 colon, in the test on NCI-H522 lung, in the test on A549 NSCLC, in the test on 786-0 renal, in the test on MDA-N and in the test with RXF 393 renal was greater than 100 µM in each case. Also, the TGI in the test with SN12C renal, with HCT-116 colon, in the test on UACC-257 melanoma, with LOX IMVI melanoma, with PC-3 prostate and in the test with SK-MEL-2 melanoma was greater than 100 µM throughout. In the test on MDA-MB-231 breast, this compound returned a TGI greater than 100 µM.

`CCCCCCCCCCCCCCCCC(=O)NCC(=O)NCC(=O)NC(Cc1ccccc1)C(=O)Oc1ccc([N+](=O)[O-])cc1` (configuration not stated): the TGI in the test on OVCAR-8 ovarian was 38.7 µM; in the test with DU-145 prostate, greater than 100 µM; with U251 CNS, 43.3 µM; in the test with IGROV1 ovarian it was greater than 100 µM; in the test with SF-295 CNS it was 40.4 µM; in the test on OVCAR-5 ovarian, 57.7 µM. Besides, the TGI was 35.8 µM in the test on COLO 205 colon; 55.2 µM in the test with NCI-H522 lung; 72.9 µM in the test on 786-0 renal; greater than 100 µM in the test on MDA-N; 46.6 µM in the test on RXF 393 renal; 34.6 µM in the test on SN12C renal. For the same compound, the TGI in the test on HCT-116 colon is 32.6 µM; in the test on UACC-257 melanoma it was 57.4 µM; with LOX IMVI melanoma, 38.7 µM; with PC-3 prostate, 86.6 µM; in the test with SK-MEL-2 melanoma, greater than 100 µM; in the test on MDA-MB-231 breast, 38.9 µM.

On to `C[C@]12CCC(=O)C=C1CC[C@@H]1[C@@H]2CC[C@]2(C)C(=O)/C(=C/c3ccncc3)C[C@@H]12`, for which the TGI in the test with OVCAR-8 ovarian amounted to 90.2 µM; in the test on DU-145 prostate, 29.2 µM; in the test with U251 CNS it was 25.7 µM; in the test on IGROV1 ovarian, 61.9 µM; with SF-295 CNS, 36.1 µM; with OVCAR-5 ovarian it was 34.2 µM. Moreover, the TGI was 27.4 µM in the test with COLO 205 colon; 33.8 µM in the test on NCI-H522 lung; 46.5 µM in the test with A549 NSCLC; 31.3 µM in the test on 786-0 renal; 54.3 µM in the test with MDA-N; 31.4 µM in the test with RXF 393 renal. Moreover, the TGI in the test with SN12C renal turned out to be 39.4 µM; in the test with HCT-116 colon it was 23 µM; in the test with UACC-257 melanoma, 28.6 µM; in the test on LOX IMVI melanoma, 30.8 µM; in the test on PC-3 prostate it was 25.6 µM; with SK-MEL-2 melanoma, 28.9 µM. For the same compound, the TGI with MDA-MB-231 breast is 31.1 µM.

Take `O=[N+]([O-])c1ccc(CSc2c3ccccc3nc3ccccc23)cc1`: the TGI in the test with OVCAR-8 ovarian is 10.8 µM; in the test with DU-145 prostate it was 5.92 µM; with U251 CNS, 20.9 µM; in the test with IGROV1 ovarian it was 7.66 µM; with SF-295 CNS, 41.7 µM; with OVCAR-5 ovarian it was 32.5 µM. For the same compound, the TGI with COLO 205 colon amounted to 16.9 µM; in the test on NCI-H522 lung, 3.62 µM; with A549 NSCLC, 51.4 µM; in the test with 786-0 renal, 4.22 µM; with MDA-N it was 23.1 µM; with RXF 393 renal, 18.5 µM. Further, the TGI in the test with SN12C renal was determined as 9.81 µM; in the test with HCT-116 colon, 7.14 µM; in the test on UACC-257 melanoma, 10.5 µM; with LOX IMVI melanoma it was 10.6 µM; in the test on PC-3 prostate it was 20 µM; with SK-MEL-2 melanoma, 32.3 µM. The same compound yielded a TGI in the test with MDA-MB-231 breast of 27.4 µM.

For the compound `O=C1C(=Cc2cccc(Cl)c2)N=C(c2ccccc2)N1n1c(-c2ccccc2)nc2ccccc2c1=O`, the TGI in the test with OVCAR-8 ovarian, in the test on DU-145 prostate, in the test with U251 CNS, in the test with IGROV1 ovarian, with SF-295 CNS and with OVCAR-5 ovarian was greater than 100 µM in each case. The TGI with COLO 205 colon was greater than 100 µM; in the test with NCI-H522 lung it was 51.7 µM; with A549 NSCLC it was greater than 100 µM; in the test with 786-0 renal it was greater than 100 µM; in the test with MDA-N, greater than 100 µM; with RXF 393 renal, greater than 100 µM. The TGI in the test on SN12C renal, in the test on HCT-116 colon, with UACC-257 melanoma, in the test with LOX IMVI melanoma, in the test with PC-3 prostate and in the test on SK-MEL-2 melanoma was greater than 100 µM each time. For the same compound, in the test with MDA-MB-231 breast, the TGI is greater than 100 µM.
